Among the test systems are HS 578T breast; HT29 colon; SN12C renal; OVCAR-8 ovarian; HL-60(TB) leukemia; SF-295 CNS; SNB-75 CNS; PC-3 prostate; CCRF-CEM leukemia; SF-539 CNS.
Holding throughout (test): inhibition of tumour cell growth, NCI panel, 48 h

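Compound exposure: 48 hours, 5 concentrations, 96-well plates. GI50: concentration for 50% inhibition of growth. The concentration for full growth arrest is given as TGI.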

For `COc1cc(C2C3=C(COC3=O)N(CCO)c3cc4c(cc32)OCO4)cc(OC)c1O` (stereo not given), the GI50 in the assay on HS 578T breast was 1.3 µM; with HT29 colon, 1.38 µM; in the assay with SN12C renal it was more than 12.1 µM; in the assay with OVCAR-8 ovarian it was 3.17 µM; in the assay on HL-60(TB) leukemia, 1.32 µM; in the assay with SF-295 CNS, 1.47 µM. Moreover, the GI50 in the assay on SNB-75 CNS was 1.12 µM; in the assay with PC-3 prostate, 1.54 µM; in the assay on CCRF-CEM leukemia, 1.51 µM; in the assay on SF-539 CNS, 1.47 µM. Further, the TGI with HS 578T breast was 4.59 µM; in the assay with HT29 colon, 5.32 µM; in the assay on SN12C renal, more than 50 µM; with OVCAR-8 ovarian it was more than 50 µM; in the assay with HL-60(TB) leukemia, 3.26 µM; in the assay on SF-295 CNS it was more than 14.6 µM. The TGI in the assay with SNB-75 CNS is 3.51 µM; with PC-3 prostate it was more than 50 µM; in the assay on CCRF-CEM leukemia it was more than 50 µM; in the assay on SF-539 CNS it was more than 13.6 µM.

`CC12CCC3c4cc(Br)c(O)c(Br)c4CCC3C1CCC2O` (stereo not given): the TGI was 49.4 µM in the assay with HS 578T breast; 29.1 µM with HT29 colon; 42 µM with SN12C renal; 42.1 µM in the assay on OVCAR-8 ovarian; 66.6 µM in the assay on HL-60(TB) leukemia; 33.4 µM in the assay with SF-295 CNS. Further, the TGI was 37.5 µM in the assay with SNB-75 CNS, more than 100 µM in the assay on PC-3 prostate, 75.8 µM in the assay on CCRF-CEM leukemia and 36.3 µM in the assay with SF-539 CNS.

With `Cc1ccc(NCCN(C)C)c2c(=O)c3ccccc3sc12`, the GI50 in the assay with HS 578T breast was 1.59 µM; in the assay on HT29 colon, 1.62 µM; in the assay on SN12C renal it was 2.45 µM; with OVCAR-8 ovarian it was 3.16 µM; in the assay on HL-60(TB) leukemia it was 1.72 µM; in the assay on SF-295 CNS, 1.88 µM. For the same molecule, the GI50 in the assay with SNB-75 CNS is 1.49 µM; with PC-3 prostate it was 1.97 µM; with CCRF-CEM leukemia it was 2.12 µM; in the assay with SF-539 CNS it was 1.59 µM. In addition, the TGI is 3.76 µM in the assay with HS 578T breast; 3.77 µM in the assay with HT29 colon; 9.61 µM in the assay on SN12C renal; 12.4 µM in the assay on OVCAR-8 ovarian; 4.15 µM in the assay with HL-60(TB) leukemia; 4.46 µM with SF-295 CNS. For the same molecule, the TGI with SNB-75 CNS was 3.08 µM; with PC-3 prostate, 5.13 µM; in the assay with CCRF-CEM leukemia, 6.18 µM; in the assay with SF-539 CNS it was 2.97 µM.

With `Oc1[nH]c2ccccc2c1N=Nc1c(F)c(F)c(F)c(F)c1F`, the TGI in the assay on HS 578T breast was more than 100 µM; in the assay with HT29 colon it was more than 100 µM; with SN12C renal, more than 55.7 µM; in the assay on OVCAR-8 ovarian, more than 100 µM; in the assay on HL-60(TB) leukemia it was 9.15 µM; with SF-295 CNS, more than 100 µM. Moreover, the TGI in the assay on SNB-75 CNS is more than 100 µM; in the assay with PC-3 prostate, more than 100 µM; in the assay with CCRF-CEM leukemia it was 16.5 µM; in the assay with SF-539 CNS it was more than 100 µM.

For the molecule `Cc1c(C(N)=O)sc2c1c(=O)n(Cc1ccccc1)c1nnc(-c3ccc(Br)cc3)n21`, the GI50 with HS 578T breast was 5.2 µM; with HT29 colon, 2.32 µM; in the assay on SN12C renal, 2.36 µM; in the assay on OVCAR-8 ovarian it was 2.21 µM; in the assay with HL-60(TB) leukemia, 4.42 µM; with SF-295 CNS, 1.01 µM. Besides, the GI50 in the assay with SNB-75 CNS is 4.44 µM; in the assay on PC-3 prostate, 4.06 µM; in the assay with CCRF-CEM leukemia, 0.805 µM; in the assay with SF-539 CNS it was 2.87 µM. Moreover, the TGI with HS 578T breast is 54.9 µM; with HT29 colon, 13.4 µM; in the assay on SN12C renal it was 14.1 µM; with OVCAR-8 ovarian it was 15 µM; in the assay on HL-60(TB) leukemia it was 38.8 µM; with SF-295 CNS, 11.8 µM. Moreover, the TGI was determined as 20.9 µM in the assay with SNB-75 CNS, 22.3 µM in the assay with PC-3 prostate, 22.8 µM in the assay with CCRF-CEM leukemia and 12.5 µM in the assay with SF-539 CNS.

On to `CC(=O)c1cc(C(=O)c2ccc3c(c2)Sc2ccccc2N3)c2c(C)cccn12`, for which the GI50 is 0.266 µM in the assay on HS 578T breast; 0.272 µM with HT29 colon; 0.686 µM with SN12C renal; 0.374 µM with OVCAR-8 ovarian; 0.296 µM in the assay with HL-60(TB) leukemia; 0.188 µM in the assay on SF-295 CNS. Besides, the GI50 in the assay on SNB-75 CNS is 0.178 µM; with PC-3 prostate, 0.321 µM; in the assay on CCRF-CEM leukemia it was 0.332 µM; with SF-539 CNS it was 0.234 µM. Moreover, the TGI in the assay on HS 578T breast was more than 36.3 µM; in the assay with HT29 colon, 1.8 µM; in the assay with SN12C renal it was more than 100 µM; with OVCAR-8 ovarian, more than 31.8 µM; in the assay with HL-60(TB) leukemia it was 0.977 µM; with SF-295 CNS it was 15.8 µM. Besides, the TGI with SNB-75 CNS was 1.04 µM; with PC-3 prostate, more than 100 µM; in the assay on CCRF-CEM leukemia, more than 100 µM; with SF-539 CNS, 1.13 µM.

Turning to `CCOC(=O)c1ccc2c(c1)[n+](=O)c(C(C)=O)c(C(F)(F)F)n2[O-]`, the GI50 in the assay with HS 578T breast was 1.4 µM; with HT29 colon, 1.58 µM; with SN12C renal it was 2.01 µM; in the assay with OVCAR-8 ovarian, 2.42 µM; in the assay on HL-60(TB) leukemia, 1.44 µM; with SF-295 CNS it was 1.37 µM. Also, the GI50 was 1.55 µM with SNB-75 CNS, 0.885 µM in the assay with PC-3 prostate, 1.68 µM in the assay with CCRF-CEM leukemia and 1.71 µM in the assay with SF-539 CNS. The TGI with HS 578T breast is 3.96 µM; with HT29 colon it was 3.11 µM; with SN12C renal, 4.55 µM; in the assay with OVCAR-8 ovarian, 9.25 µM; with HL-60(TB) leukemia, 3.08 µM; with SF-295 CNS it was 3.01 µM. Further, the TGI with SNB-75 CNS was determined as 3 µM; in the assay on PC-3 prostate, 2.38 µM; in the assay with CCRF-CEM leukemia, 4.59 µM; with SF-539 CNS, 3.31 µM.

As to `COc1cc2c(=O)n(CCN(C)C)c3c4cc5c(cc4ccc3c2cc1OC)OCO5`, the GI50 with HS 578T breast was 0.973 µM; with HT29 colon, 0.178 µM; with SN12C renal it was 0.226 µM; in the assay with OVCAR-8 ovarian it was 0.478 µM; in the assay with HL-60(TB) leukemia it was 0.239 µM; in the assay with SF-295 CNS it was 0.155 µM. Also, the GI50 with SNB-75 CNS was 0.23 µM; with PC-3 prostate, 0.338 µM; with CCRF-CEM leukemia, 0.146 µM; with SF-539 CNS, 0.181 µM. In addition, the TGI in the assay with HS 578T breast was more than 13.1 µM; in the assay with HT29 colon, 5.43 µM; in the assay on SN12C renal it was more than 50 µM; with OVCAR-8 ovarian it was more than 50 µM; in the assay on HL-60(TB) leukemia, 3.74 µM; in the assay on SF-295 CNS, 3.15 µM. Further, the TGI in the assay on SNB-75 CNS was 5.05 µM; in the assay on PC-3 prostate, 6.16 µM; with CCRF-CEM leukemia it was more than 10.9 µM; in the assay on SF-539 CNS, 0.863 µM.

The values above are taken from PubChem BioAssay (NCI).
